How the values were obtained:
Assay in all cases: combination Emax (second highest fraction inhibited in the dose matrix, 72 h); higher = more inhibition; extreme values may be limits of the assay
[1] = test system: NB7 (Neuroblastoma)
Summary of the method: (§1)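 Cell lines grown in DMEM/F12 or RPMI with 10% FBS were plated in 1536-well plates and held 24 hours at 37°C, 5% CO2 before 72 hours of exposure to two-drug dose matrices, with DMSO typically at 0.2%. CellTiter-Glo 2.0 luminescence gave viability, which was converted to inhibition. Vehicle wells were set to 0 and blank wells to 1. Combination Emax is the second-highest inhibition in the matrix, and Bliss excess is the observed combination effect minus the expected EA + EB − EA·EB, where EA and EB are the single-agent effects.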

[2] = test system: PFSK-1 (Other Solid Carcinomas)
Summary of the method: as §1

[3] = test system: NCI-H1573 (Lung Adenocarcinoma)
Summary of the method: as §1

[4] = test system: KYSE-150 (Esophageal Squamous Cell Carcinoma)
Summary of the method: as §1

[5] = test system: HC-1 (Other Blood Carcinomas)
Summary of the method: as §1

[6] = test system: JHH-7 (Hepatocellular Carcinoma)
Summary of the method: as §1

[7] = test system: EW-3 (Ewing's Sarcoma)
Summary of the method: as §1

[8] = test system: PF-382 (T-Lymphoblastic Leukemia)
Summary of the method: as §1

[9] = test system: A704 (Kidney Carcinoma)
Summary of the method: as §1

[10] = test system: NCI-H2405 (Lung Adenocarcinoma)
Summary of the method: as §1

[11] = test system: VMRC-LCD (Lung Adenocarcinoma)
Summary of the method: as §1

[12] = test system: EMC-BAC-2 (Non-Small Cell Lung Carcinoma)
Summary of the method: as §1

[13] = test system: EW-18 (Ewing's Sarcoma)
Summary of the method: as §1

[14] = test system: DG-75 (Burkitt's Lymphoma)
Summary of the method: as §1

[15] = test system: SNU-C1 (Colorectal Carcinoma)
Summary of the method: as §1

[16] = test system: ASH-3 (Thyroid Gland Carcinoma)
Summary of the method: as §1

[17] = test system: BV-173 (Chronic Myelogenous Leukemia)
Summary of the method: as §1

[18] = test system: HSC-2 (Oral Cavity Carcinoma)
Summary of the method: as §1

[19] = test system: NCI-H322M (Lung Adenocarcinoma)
Summary of the method: as §1

[20] = test system: BT-20 (Breast Carcinoma)
Summary of the method: as §1

Compound | combination Emax [1] | combination Emax [2] | combination Emax [3] | combination Emax [4] | combination Emax [5] | combination Emax [6] | combination Emax [7] | combination Emax [8] | combination Emax [9] | combination Emax [10] | combination Emax [11] | combination Emax [12] | combination Emax [13] | combination Emax [14] | combination Emax [15] | combination Emax [16] | combination Emax [17] | combination Emax [18] | combination Emax [19] | combination Emax [20]
Cc1c2c(nn1C)CSCc1cc(n(C)n1)CSc1cc(c3ccccc3c1)OCCCc1c(C(=O)O)n(C)c3c-2c(Cl)ccc13 [AZD5991] + C[C@@H]1COCCN1C2=NC(=NC(=C2)C3(CC3)[S@](=N)(=O)C)C4=C5C=CNC5=NC=C4 [AZD6738] (first compound max 1 µM, 7x7, partner max 10 µM) | 0.918 | 1 | 0.516 | 0.543 | 0.926 | 0.268 | 0.892 | 0.929 | 0.487 | 0.353 | 0.559 | 0.862 | 0.928 | 0.817 | 0.333 | 0.566 | 0.965 | 0.765 | 0.94 | 
CS(=O)(=O)CCNCc1ccc(-c2ccc3ncnc(Nc4ccc(OCc5cccc(F)c5)c(Cl)c4)c3c2)o1 [Lapatinib] + NC1(c2ccc(-c3nc4ccn5c(=O)[nH]nc5c4cc3-c3ccccc3)cc2)CCC1 [MK-2206] (first compound max 10 µM, 7x7, partner max 10 µM) | 0.821 | 0.942 | 0.723 | 0.954 |  | 0.754 | 0.87 | 0.974 |  | 0.113 | 0.205 |  |  |  | 0.631 | 0.956 |  | 0.987 |  | 
C=CCn1c(=O)c2cnc(Nc3ccc(N4CCN(C)CC4)cc3)nc2n1-c1cccc(C(C)(C)O)n1 [AZD1775] + C1CN(CCC1(C(=O)N[C@@H](CCO)C2=CC=C(C=C2)Cl)N)C3=NC=NC4=C3C=CN4 [Capivasertib] (first compound max 3 µM, partner max 3 µM) | 0.748 | 0.893 | 0.604 | 0.727 | 0.982 | 0.727 | 0.518 | 0.952 | 0.438 | 0.572 |  | 0.592 | 0.859 | 0.922 | 0.568 | 0.519 |  | 0.757 | 0.768 | 0.69
COc1nnc2ccc(N3CCC(c4ccc(OCCN5CCN(C)C(=O)[C@H]5C)cc4)CC3)nn12 [AZD5153] + CN(CC[C@H](CSC1=CC=CC=C1)NC2=C(C=C(C=C2)S(=O)(=O)NC(=O)C3=CC=C(C=C3)N4CCC(CC4)[C@H](C5=CC=CC=C5C6=CC=C(C=C6)Cl)O)S(=O)(=O)C(F)(F)F)CCO [AZD4320] (first compound max 1 µM, 7x7, partner max 1 µM) |  | 0.558 | 0.356 | 0.607 | 0.695 |  |  | 1 | 0.768 | 0.443 |  | 0.661 | 0.929 | 0.881 |  | 0.958 | 0.957 |  | 0.563 | 0.293
CC(=O)c1c(C)c2cnc(Nc3ccc(N4CCNCC4)cn3)nc2n(C2CCCC2)c1=O [Palbociclib] + CN(CC[C@H](CSC1=CC=CC=C1)NC2=C(C=C(C=C2)S(=O)(=O)NC(=O)C3=CC=C(C=C3)N4CCC(CC4)[C@H](C5=CC=CC=C5C6=CC=C(C=C6)Cl)O)S(=O)(=O)C(F)(F)F)CCO [AZD4320] (first compound max 10 µM, 7x7, partner max 1 µM) |  | 0.51 | 0.306 | 0.607 | 0.831 |  |  | 1 | 0.935 | 0.351 |  | 0.366 | 0.903 | 0.735 |  | 0.692 | 0.958 |  | 0.517 | 0.546
Cc1cc2ncnn2cc1Nc1ncc2c(n1)n(C1CCOCC1)c(=O)n2C [AZD7648] + CCN(CCO)CCCOc1ccc2c(Nc3cc(CC(=O)Nc4cccc(F)c4)[nH]n3)ncnc2c1 [AZD2811] (first compound max 10 µM, 7x7, partner max 1 µM) | 0.406 |  | 0.214 | 0.658 | 0.737 | 0.296 | 0.397 | 0.851 | 0.247 | 0.188 | 0.619 | 0.349 | 0.68 | 0.475 | 0.351 | 0.324 | 0.964 | 0.547 | 0.352 | 0.426
CN(C)CCCOc1ccc(-c2ccc3ncc4c(c3c2)n(C2CCOCC2)c(=O)n4C)cn1 [AZD0156] + C=CCn1c(=O)c2cnc(Nc3ccc(N4CCN(C)CC4)cc3)nc2n1-c1cccc(C(C)(C)O)n1 [AZD1775] (first compound max 1 µM, partner max 1 µM) | 0.6 |  | 0.159 | 0.448 | 0.994 | 0.136 | 0.357 | 0.954 | 0.379 | 0.0974 | 0.357 | 0.304 | 0.556 | 0.759 | 0.295 | 0.203 | 0.995 | 0.54 | 0.77 | 0.476
Cc1cc2ncnn2cc1Nc1ncc2c(n1)n(C1CCOCC1)c(=O)n2C [AZD7648] + O=C(c1cc(Cc2n[nH]c(=O)c3ccccc23)ccc1F)N1CCN(C(=O)C2CC2)CC1 [Olaparib] (first compound max 10 µM, 7x7, partner max 10 µM) | 0.219 |  | 0.0771 | 0.537 | 0.521 | 0.159 | 0.657 | 0.49 | 0.226 | 0.093 | 0.0108 | 0.204 | 0.369 | 0.481 | 0.158 | 0.321 | 0.897 | 0.228 | 0.325 | 0.313
CCN(CCO)CCCOc1ccc2c(Nc3cc(CC(=O)Nc4cccc(F)c4)[nH]n3)ncnc2c1 [AZD2811] + O=C(c1cc(Cc2n[nH]c(=O)c3ccccc23)ccc1F)N1CCN(C(=O)C2CC2)CC1 [Olaparib] (first compound max 1 µM, 7x7, partner max 10 µM) | 0.473 |  | 0.152 | 0.515 | 0.681 | 0.218 | 0.675 | 0.893 | 0.188 | 0.234 | 0.545 | 0.31 | 0.667 | 0.307 | 0.276 | 0.249 | 0.982 | 0.439 | 0.182 | 0.286
C=CCn1c(=O)c2cnc(Nc3ccc(N4CCN(C)CC4)cc3)nc2n1-c1cccc(C(C)(C)O)n1 [AZD1775] + C[C@@H]1COCCN1C2=NC(=NC(=C2)C3(CC3)[S@](=N)(=O)C)C4=C5C=CNC5=NC=C4 [AZD6738] (first compound max 1 µM, partner max 10 µM) | 0.934 |  | 0.694 | 0.756 | 0.971 | 0.642 | 0.804 | 0.966 | 0.57 | 0.355 | 0.733 | 0.571 | 0.66 | 0.978 | 0.624 | 0.848 | 0.988 | 0.832 | 0.871 | 0.718
COc1cccc(OCCCN)c1-c1cc(Nc2cnc(C#N)cn2)n[nH]1 [Prexasertib] + C=CCn1c(=O)c2cnc(Nc3ccc(N4CCN(C)CC4)cc3)nc2n1-c1cccc(C(C)(C)O)n1 [AZD1775] (first compound max 1 µM, partner max 1 µM) | 0.938 |  | 0.713 | 0.866 | 1 | 0.765 | 0.732 | 0.942 | 0.517 | 0.388 | 0.772 | 0.608 | 0.723 | 0.995 | 0.847 | 0.848 | 0.994 | 0.882 | 0.974 | 0.839
CN(C)CCCOc1ccc(-c2ccc3ncc4c(c3c2)n(C2CCOCC2)c(=O)n4C)cn1 [AZD0156] + CCN(CCO)CCCOc1ccc2c(Nc3cc(CC(=O)Nc4cccc(F)c4)[nH]n3)ncnc2c1 [AZD2811] (first compound max 1 µM, 7x7, partner max 1 µM) | 0.276 |  | 0.106 | 0.422 | 0.379 | 0.143 | 0.34 | 0.823 | 0.156 | 0.106 | 0.545 | 0.253 | 0.678 | 0.365 | 0.205 | 0.155 | 0.975 | 0.289 | 0.123 | 0.198
Cc1cc2ncnn2cc1Nc1ncc2c(n1)n(C1CCOCC1)c(=O)n2C [AZD7648] + CN(C)CCCOc1ccc(-c2ccc3ncc4c(c3c2)n(C2CCOCC2)c(=O)n4C)cn1 [AZD0156] (first compound max 10 µM, 7x7, partner max 1 µM) | 0.213 |  | 0.15 | 0.532 | 0.386 | 0.177 | 0.386 | 0.478 | 0.215 | 0.183 | 0.253 | 0.311 | 0.391 | 0.409 | 0.316 | 0.332 | 0.386 | 0.398 | 0.368 | 0.413
CCN(CCO)CCCOc1ccc2c(Nc3cc(CC(=O)Nc4cccc(F)c4)[nH]n3)ncnc2c1 [AZD2811] + C=CCn1c(=O)c2cnc(Nc3ccc(N4CCN(C)CC4)cc3)nc2n1-c1cccc(C(C)(C)O)n1 [AZD1775] (first compound max 1 µM, partner max 1 µM) | 0.662 |  | 0.178 | 0.533 | 0.983 | 0.162 | 0.402 | 0.978 | 0.392 | 0.128 | 0.553 | 0.223 | 0.635 | 0.776 | 0.151 | 0.103 | 0.987 | 0.43 | 0.801 | 0.455
